For `*c1c(C)c2c(c(N3C(=O)c4ccc(C(c5ccc6c(c5)C(=O)N(*)C6=O)(C(F)(F)F)C(F)(F)F)cc4C3=O)c1C)C(C)(C)CC2` (repeat unit), the CH4 permeability was 50.5 Barrer, the CO2 permeability is 692 Barrer, the N2 permeability came to 58.6 Barrer and the O2 permeability was determined as 198 Barrer.
As for `*Oc1cc2c(cc1O*)C1(CC2(C)C)CC(C)(C)c2cc3c(cc21)Oc1c(C#N)c(*)c(*)c(C(=O)O)c1O3` (repeat unit), the CO2 permeability was 2540 Barrer, the H2 permeability is 1540 Barrer, the N2 permeability is 162 Barrer and the O2 permeability came out at 534 Barrer.
Consider `*c1ccc(*)c(C(=O)c2ccccc2)c1` (repeat unit), for which the CH4 permeability was found to be 0.36 Barrer, the CO2 permeability was 14.2 Barrer, the H2 permeability turned out to be 27.4 Barrer and the N2 permeability is 0.4 Barrer. This molecule also gave an O2 permeability of 2.99 Barrer.
Take `*Oc1ccc(C2(c3ccc(Oc4ccc(S(=O)(=O)c5ccc(*)cc5)cc4)c(C)c3)OC(=O)c3ccccc32)cc1C` (repeat unit): the CH4 permeability is 0.0727 Barrer, the CO2 permeability turned out to be 3.12 Barrer, the H2 permeability stood at 10.8 Barrer and the N2 permeability amounted to 0.11 Barrer. In addition, the O2 permeability was determined as 0.868 Barrer.
In the case of `*C(=C(*)c1ccc2c(c1)C(C)(C)CCC2(C)C)c1ccccc1` (repeat unit), the CH4 permeability is 6600 Barrer, the CO2 permeability was determined as 11400 Barrer, the H2 permeability was found to be 7700 Barrer and the N2 permeability turned out to be 2700 Barrer. The same molecule registered an O2 permeability of 3900 Barrer.
With `*c1c(C)c(C)c(N2C(=O)c3ccc(Oc4cc(C(C)(C)C)cc(C)c4Oc4ccc5c(c4)C(=O)N(*)C5=O)cc3C2=O)c(C)c1C` (repeat unit), the CH4 permeability was 2.2 Barrer, the CO2 permeability was 67 Barrer, the H2 permeability was 110 Barrer and the N2 permeability was 2.5 Barrer. The same molecule showed an O2 permeability of 13 Barrer.
As to `*C(=O)c1ccc(C2(c3ccc(C(=O)c4ccc(Oc5ccc(C(=O)c6cccc(C(=O)c7ccc(Oc8ccc(*)cc8)cc7)c6)cc5)cc4)cc3)OC(=O)c3ccccc32)cc1` (repeat unit), the CH4 permeability is 0.0276 Barrer, the CO2 permeability was found to be 0.91 Barrer, the H2 permeability worked out at 5.3 Barrer and the N2 permeability is 0.031 Barrer. Also, the O2 permeability was 0.27 Barrer.
Turning to `*Oc1ccc(C(c2ccc(Oc3c(F)c(F)c(COC(C4CCCC(C(OCc5c(F)c(F)c(*)c(F)c5F)(C(F)(F)F)C(F)(F)F)C4)(C(F)(F)F)C(F)(F)F)c(F)c3F)cc2)(C(F)(F)F)C(F)(F)F)cc1` (repeat unit), the CH4 permeability came to 0.55 Barrer, the CO2 permeability was determined as 12 Barrer, the H2 permeability is 28 Barrer and the N2 permeability stood at 0.9 Barrer. In addition, the O2 permeability is 3.8 Barrer.
Molecule `*c1c(C)cc2c(c1C)C1c3ccccc3C2c2cc(C)c(N3C(=O)C4C5C=CC(C6C(=O)N(*)C(=O)C56)C4C3=O)c(C)c21` (repeat unit) returned a CH4 permeability of 69 Barrer, a CO2 permeability of 1310 Barrer, an H2 permeability of 1600 Barrer and an N2 permeability of 71 Barrer. Further, the O2 permeability is 308 Barrer.
For `*c1ccc(Oc2ccc(-n3c(=O)c4cc5sc6cc7c(=O)n(*)c(=O)c7cc6sc5cc4c3=O)cc2)cc1` (repeat unit) the same measures were 0.082 Barrer, 4 Barrer, 11 Barrer, 0.11 Barrer and 0.74 Barrer.
In turn, `*Oc1ccc2c(c1)C1(CC2(C)C)CC(C)(C)c2ccc(OC(=O)c3ccc(C(*)=O)cc3)cc21` (repeat unit) displayed a CH4 permeability of 4.22 Barrer, a CO2 permeability of 55.7 Barrer, an N2 permeability of 2.98 Barrer and an O2 permeability of 13.4 Barrer.
Consider `*c1ccc(Oc2cc3c(cc2C)OC2(CC3(C)C)CC(C)(C)c3cc(Oc4ccc(*)cc4)c(C)cc3O2)cc1` (repeat unit), for which the CH4 permeability worked out at 0.77 Barrer, the CO2 permeability turned out to be 29.3 Barrer, the N2 permeability is 1.33 Barrer and the O2 permeability worked out at 6.17 Barrer.
As to `*/C(C)=C(/*)c1ccc([Si](C)(C)C)cc1` (repeat unit), the CH4 permeability amounted to 200 Barrer, the CO2 permeability stood at 950 Barrer, the H2 permeability came to 510 Barrer and the N2 permeability worked out at 100 Barrer. This molecule displayed an O2 permeability of 240 Barrer.
`*Oc1ccc(C(C)(C)c2ccc(OC(=O)c3cccc(C(=O)Oc4cc(-c5cc(*)cc6ccccc56)c5ccccc5c4)c3)cc2)cc1` (repeat unit) came in with a CH4 permeability of 0.148 Barrer, a CO2 permeability of 4 Barrer, an N2 permeability of 0.139 Barrer and an O2 permeability of 0.93 Barrer.
`*c1ccc(-c2ccc(Oc3ccc4c(c3)C3(CC4(C)C)CC(C)(C)c4ccc(Oc5ccc(-c6ccc(N7C(=O)c8ccc(Oc9ccc(C(C)(C)c%10ccc(Oc%11ccc%12c(c%11)C(=O)N(*)C%12=O)cc%10)cc9)cc8C7=O)cc6)cc5C(F)(F)F)cc43)c(C(F)(F)F)c2)cc1` (repeat unit) showed a CH4 permeability of 0.35 Barrer, a CO2 permeability of 23.9 Barrer, an N2 permeability of 1.02 Barrer and an O2 permeability of 9.92 Barrer.
As for `*CC(*)(C)C(=O)OC` (repeat unit), the CH4 permeability was 0.00565 Barrer, the CO2 permeability stood at 0.35 Barrer, the H2 permeability was 4.1 Barrer and the N2 permeability came out at 0.0113 Barrer. Further, the O2 permeability was 0.0885 Barrer.
In turn, `*c1ccc(-c2ccc(N3C(=O)c4ccc(-c5ccc6c(c5)C(=O)N(*)C6=O)cc4C3=O)c(O)c2)cc1O` (repeat unit) displayed a CH4 permeability of 0.00041 Barrer, a CO2 permeability of 0.0313 Barrer, an N2 permeability of 0.001 Barrer and an O2 permeability of 0.0096 Barrer.
`*c1cc2c(cc1C)-c1cc(C)c(N3C(=O)c4cc5c(cc4C3=O)S(=O)(=O)c3cc4c(cc3S5(=O)=O)C(=O)N(*)C4=O)cc1S2(=O)=O` (repeat unit): the CH4 permeability worked out at 0.59 Barrer, the CO2 permeability turned out to be 24 Barrer and the N2 permeability worked out at 0.7 Barrer.
Molecule `*C(C)=C(*)CCCCCCC` (repeat unit) had a CH4 permeability of 83.5 Barrer, a CO2 permeability of 290 Barrer, an H2 permeability of 145 Barrer and an N2 permeability of 29 Barrer. Further, the O2 permeability amounted to 72.5 Barrer.
As for `*Oc1ccc(S(=O)(=O)c2ccc(Oc3ccc(C(C)(C)c4ccc(*)c(C(OC)(C(F)(F)F)C(F)(F)F)c4)cc3C(OC)(C(F)(F)F)C(F)(F)F)cc2)cc1` (repeat unit), the CO2 permeability was 7.7 Barrer, the N2 permeability was 0.26 Barrer and the O2 permeability was determined as 2 Barrer.
Molecule `*c1ccc(Oc2ccc(C3(c4ccc(Oc5ccc(N6C(=O)c7ccc(C(c8ccc9c(c8)C(=O)N(*)C9=O)(C(F)(F)F)C(F)(F)F)cc7C6=O)c(C)c5)cc4)c4ccccc4-c4ccccc43)cc2)cc1C` (repeat unit) returned a CH4 permeability of 0.34 Barrer, a CO2 permeability of 11.7 Barrer, an H2 permeability of 47.3 Barrer and an N2 permeability of 0.73 Barrer. The same molecule yielded an O2 permeability of 3.62 Barrer.
For `*c1c(C)cc(-c2cc(C)c(N3C(=O)c4cc5c(cc4C3=O)C3(C)CCC5(C)c4cc5c(cc43)C(=O)N(*)C5=O)c3ccccc23)c2ccccc12` (repeat unit) the same measures were 230 Barrer, 4300 Barrer, 3420 Barrer, 208 Barrer and 901 Barrer.

The values are drawn from a polymer gas permeability compilation.
